PubChem BioAssay (NCI)
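1) Cells in 96-well plates. 2) Compound, 48 h, 5 concentrations. 3) Linear interpolation between surrounding doses. 4) Unreached endpoint = highest concentration. GI50: concentration for 50% inhibition of growth. Definition used: TGI = concentration required for complete inhibition of growth.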

How the values were obtained:
Assay in all cases: NCI tumour cell line growth inhibition, 48 h
SK-MEL-28 melanoma = tested on: SK-MEL-28 melanoma
SR leukemia = tested on: SR leukemia
HL-60(TB) leukemia = tested on: HL-60(TB) leukemia
SN12C renal = tested on: SN12C renal
OVCAR-5 ovarian = tested on: OVCAR-5 ovarian
SF-295 CNS = tested on: SF-295 CNS
DU-145 prostate = tested on: DU-145 prostate
SK-MEL-2 melanoma = tested on: SK-MEL-2 melanoma
SK-OV-3 ovarian = tested on: SK-OV-3 ovarian
MALME-3M melanoma = tested on: MALME-3M melanoma
RPMI-8226 leukemia = tested on: RPMI-8226 leukemia
MDA-MB-231 breast = tested on: MDA-MB-231 breast
SK-MEL-5 melanoma = tested on: SK-MEL-5 melanoma
NCI-H522 lung = tested on: NCI-H522 lung
ACHN renal = tested on: ACHN renal
EKVX NSCLC = tested on: EKVX NSCLC
OVCAR-4 ovarian = tested on: OVCAR-4 ovarian
BT-549 breast = tested on: BT-549 breast
OVCAR-8 ovarian = tested on: OVCAR-8 ovarian
A498 renal = tested on: A498 renal
CAKI-1 renal = tested on: CAKI-1 renal
SW-620 colon = tested on: SW-620 colon
MDA-MB-435 = tested on: MDA-MB-435
PC-3 prostate = tested on: PC-3 prostate
TK-10 renal = tested on: TK-10 renal
SNB-19 CNS = tested on: SNB-19 CNS
SNB-75 CNS = tested on: SNB-75 CNS
HOP-62 NSCLC = tested on: HOP-62 NSCLC
NCI-H226 lung = tested on: NCI-H226 lung
KM12 colon = tested on: KM12 colon
MOLT-4 leukemia = tested on: MOLT-4 leukemia
HCC-2998 colon = tested on: HCC-2998 colon
HOP-92 NSCLC = tested on: HOP-92 NSCLC
M14 melanoma = tested on: M14 melanoma
A549 NSCLC = tested on: A549 NSCLC
HS 578T breast = tested on: HS 578T breast
786-0 renal = tested on: 786-0 renal
HT29 colon = tested on: HT29 colon
SF-268 CNS = tested on: SF-268 CNS
IGROV1 ovarian = tested on: IGROV1 ovarian
K-562 leukemia = tested on: K-562 leukemia
COLO 205 colon = tested on: COLO 205 colon
UACC-257 melanoma = tested on: UACC-257 melanoma
UO-31 renal = tested on: UO-31 renal
OVCAR-3 ovarian = tested on: OVCAR-3 ovarian
HCT-15 colon = tested on: HCT-15 colon
LOX IMVI melanoma = tested on: LOX IMVI melanoma
SF-539 CNS = tested on: SF-539 CNS
RXF 393 renal = tested on: RXF 393 renal
NCI-H460 lung = tested on: NCI-H460 lung
T-47D breast = tested on: T-47D breast
U251 CNS = tested on: U251 CNS
HCT-116 colon = tested on: HCT-116 colon
MCF7 breast = tested on: MCF7 breast
NCI/ADR-RES ovarian = tested on: NCI/ADR-RES ovarian
UACC-62 melanoma = tested on: UACC-62 melanoma

Structure (SMILES): N/C(=N\c1nc2c(Cl)cc(Cl)cc2s1)C(Cl)(Cl)Cl
- GI50 (SK-MEL-28 melanoma): 29.2 µM
- TGI (SK-MEL-28 melanoma): > 100 µM
- GI50 (SR leukemia): 77.4 µM
- TGI (SR leukemia): > 100 µM
- GI50 (HL-60(TB) leukemia): 4.91 µM
- TGI (HL-60(TB) leukemia): > 100 µM
- GI50 (SN12C renal): > 100 µM
- TGI (SN12C renal): > 100 µM
- GI50 (OVCAR-5 ovarian): 45.2 µM
- TGI (OVCAR-5 ovarian): > 100 µM
- GI50 (SF-295 CNS): 11.5 µM
- TGI (SF-295 CNS): > 100 µM
- GI50 (DU-145 prostate): 3.11 µM
- TGI (DU-145 prostate): 15.8 µM
- GI50 (SK-MEL-2 melanoma): > 100 µM
- TGI (SK-MEL-2 melanoma): > 100 µM
- GI50 (SK-OV-3 ovarian): 35.4 µM
- TGI (SK-OV-3 ovarian): > 100 µM
- GI50 (MALME-3M melanoma): > 100 µM
- TGI (MALME-3M melanoma): > 100 µM
- GI50 (RPMI-8226 leukemia): 17 µM
- TGI (RPMI-8226 leukemia): > 100 µM
- GI50 (MDA-MB-231 breast): 38.3 µM
- TGI (MDA-MB-231 breast): > 100 µM
- GI50 (SK-MEL-5 melanoma): > 100 µM
- TGI (SK-MEL-5 melanoma): > 100 µM
- GI50 (NCI-H522 lung): > 100 µM
- TGI (NCI-H522 lung): > 100 µM
- GI50 (ACHN renal): 3.59 µM
- TGI (ACHN renal): 22.2 µM
- GI50 (EKVX NSCLC): 6.01 µM
- TGI (EKVX NSCLC): 26.6 µM
- GI50 (OVCAR-4 ovarian): 41 µM
- TGI (OVCAR-4 ovarian): > 100 µM
- GI50 (BT-549 breast): 85.5 µM
- TGI (BT-549 breast): > 100 µM
- GI50 (OVCAR-8 ovarian): > 100 µM
- TGI (OVCAR-8 ovarian): > 100 µM
- GI50 (A498 renal): 15.3 µM
- TGI (A498 renal): 29.4 µM
- GI50 (CAKI-1 renal): 9.28 µM
- TGI (CAKI-1 renal): > 100 µM
- GI50 (SW-620 colon): 48 µM
- TGI (SW-620 colon): > 100 µM
- GI50 (MDA-MB-435): 61.3 µM
- TGI (MDA-MB-435): > 100 µM
- GI50 (PC-3 prostate): 12.9 µM
- TGI (PC-3 prostate): 75.8 µM
- GI50 (TK-10 renal): 31.7 µM
- TGI (TK-10 renal): > 100 µM
- GI50 (SNB-19 CNS): 19.4 µM
- TGI (SNB-19 CNS): > 100 µM
- GI50 (SNB-75 CNS): > 100 µM
- TGI (SNB-75 CNS): > 100 µM
- GI50 (HOP-62 NSCLC): 5.62 µM
- TGI (HOP-62 NSCLC): 24.6 µM
- GI50 (NCI-H226 lung): > 100 µM
- TGI (NCI-H226 lung): > 100 µM
- GI50 (KM12 colon): 5.8 µM
- TGI (KM12 colon): 71.8 µM
- GI50 (MOLT-4 leukemia): 34.6 µM
- TGI (MOLT-4 leukemia): > 100 µM
- GI50 (HCC-2998 colon): 6.11 µM
- TGI (HCC-2998 colon): 23.6 µM
- GI50 (HOP-92 NSCLC): 2.89 µM
- TGI (HOP-92 NSCLC): 25.8 µM
- GI50 (M14 melanoma): > 100 µM
- TGI (M14 melanoma): > 100 µM
- GI50 (A549 NSCLC): 5.65 µM
- TGI (A549 NSCLC): 19.4 µM
- GI50 (HS 578T breast): 17.9 µM
- TGI (HS 578T breast): > 100 µM
- GI50 (786-0 renal): > 100 µM
- TGI (786-0 renal): > 100 µM
- GI50 (HT29 colon): 5.21 µM
- TGI (HT29 colon): 29.7 µM
- GI50 (SF-268 CNS): 51.5 µM
- TGI (SF-268 CNS): > 100 µM
- GI50 (IGROV1 ovarian): 55.8 µM
- TGI (IGROV1 ovarian): > 100 µM
- GI50 (K-562 leukemia): 55.3 µM
- TGI (K-562 leukemia): > 100 µM
- GI50 (COLO 205 colon): 3.46 µM
- TGI (COLO 205 colon): 16.2 µM
- GI50 (UACC-257 melanoma): 22.4 µM
- TGI (UACC-257 melanoma): > 100 µM
- GI50 (UO-31 renal): 25.2 µM
- TGI (UO-31 renal): > 100 µM
- GI50 (OVCAR-3 ovarian): 5.57 µM
- TGI (OVCAR-3 ovarian): 35.4 µM
- GI50 (HCT-15 colon): 53.2 µM
- TGI (HCT-15 colon): > 100 µM
- GI50 (LOX IMVI melanoma): 3.3 µM
- TGI (LOX IMVI melanoma): 26.3 µM
- GI50 (SF-539 CNS): 17.2 µM
- TGI (SF-539 CNS): > 100 µM
- GI50 (RXF 393 renal): 12.5 µM
- TGI (RXF 393 renal): > 100 µM
- GI50 (NCI-H460 lung): 3.63 µM
- TGI (NCI-H460 lung): 18.2 µM
- GI50 (T-47D breast): 5.4 µM
- TGI (T-47D breast): > 100 µM
- GI50 (U251 CNS): 6.63 µM
- TGI (U251 CNS): 96.6 µM
- GI50 (HCT-116 colon): 28.1 µM
- TGI (HCT-116 colon): > 100 µM
- GI50 (MCF7 breast): 3.02 µM
- TGI (MCF7 breast): > 100 µM
- GI50 (NCI/ADR-RES ovarian): 88.6 µM
- TGI (NCI/ADR-RES ovarian): > 100 µM
- GI50 (UACC-62 melanoma): 26.7 µM
- TGI (UACC-62 melanoma): > 100 µM
